What all share (format): cell-based
Test [1] concerns MCF7, estrogen receptor positive, human breast cancer cells. As to the kind of experiment: Cell Titer Blue in vitro cell viability assay, MCF7. As to conditions: 72 h, MCF7 (DMEM), 3 days at 37° C. As for the experimental part:
(§1) FIG. 8: Dose Response curve for MBC0179 with MCF7 cells. Compound MBC0179 was incubated with MCF7, estrogen receptor positive, human breast cancer cells at the indicated concentrations for 3 days at 37° C. prior to Cell Titer Blue fluorescence-based cell viability assay. Normalized cell viability data, expressed as a percentage, are averaged from three biological replicates and standard error represented by error bars for each averaged data point (empty squares). The compound concentrations are represented on log scale on the x-axis in μM units. Data were analyzed using free software called DrFit, as described in Nature Scientific Reports, Article number: 14701, (2015). […]
(§2) The Cell Titer Blue reagent (available from Promega, Inc.) is a buffered solution containing resazurin, a compound that is converted to resorufin, a detectable fluorescent product, by metabolically active cells. The fluorescence intensity of resorufin product therefore serves as a proportional measure of the number of viable cells, permitting changes in cell viability within cancer or other cell lines to be monitored in response to the addition of cytotoxic or cytostatic agents. […] Metastases to the lungs may be conveniently quantified by a well-established clonogenic assay. […]

Test [2] relates to MDA-MB-231 triple-negative human breast cancer cells. As to the kind of experiment: Cell Titer Blue in vitro cell viability assay, MDA-MB-231. As to conditions: MDA-MB-231, 72 h, 3 days at 37° C. As for the experimental part: FIG. 1: Dose Response curve for MBC017 with MDA-MB-231 cells. Compound MBC017 was incubated with MDA-MB-231 triple-negative human breast cancer cells at the indicated concentrations for 3 days at 37° C. prior to Cell Titer Blue fluorescence-based cell viability assay. Normalized cell viability data, expressed as a percentage, are averaged from three biological replicates and standard error represented by error bars for each averaged data point (empty squares). The compound concentrations are represented on log scale on the x-axis in μM units. Data were analyzed using free software called DrFit, as described in Nature Scientific Reports, Article number: 14701, (2015). […] The data were not sufficient to calculate an accurate IC50 value.
A commercially available in vitro cell viability reagent (Cell Titer Blue) was employed to determine the anti-cancer effectiveness of several compounds (1-5) against multiple cancer and healthy tissue-derived cell lines. Cell lines are summarized in Table 2, as follows: All cell lines and information on each cell lines origins and characteristics were procured from ATCC (www.atcc.org). Common names and ATCC product IDs are shown in the first (leftmost) column. From the left, the second and third columns describe the organism and tissue from which each cell line was isolated. The fourth and fifth columns indicate the cell type and disease status (e.g. normal versus carcinoma) of each cell line. The sixth column provides a summary of what compounds were tested against each cell line using an in vitro cell viability assay. Peptide name IDs are shown in parenthesis for each compound, numbered 1 through 5.
The Cell Titer Blue reagent (available from Promega, Inc.) is a buffered solution containing resazurin, a compound that is converted to resorufin, a detectable fluorescent product, by metabolically active cells. The fluorescence intensity of resorufin product therefore serves as a proportional measure of the number of viable cells, permitting changes in cell viability within cancer or other cell lines to be monitored in response to the addition of cytotoxic or cytostatic agents. Various human breast tissue-derived cell lines are widely employed to study the effects of potential therapeutics against breast cancer in vitro. Human breast cancer cell lines may be subdivided into groups based upon hormone receptor status, i.e. estrogen, progesterone and human epidermal growth factor positive or negative. A healthy human breast tissue-derived cell line, hTERT-HME1 may be used to determine the effect of therapeutic agents on healthy human breast tissue in vitro. Additionally, a highly metastatic and aggressive murine (mouse) breast cancer cell line, 4T1, has been extensively used to monitor breast cancer metastasis from the mammary fat pads of mice to the lungs in order to systematically survey the anti-metastatic effectiveness of anti-cancer therapeutics in an in vivo animal model. Metastases to the lungs may be conveniently quantified by a well-established clonogenic assay. Other human tissue-derived model cell lines, representative of various cancers, other than breast cancer, may be utilized to assess the potential of anti-cancer compounds in vitro. These include, K-562 (chronic myelogenous leukemia), HEPG2 (hepatocellular carcinoma), OVCAR-3 (ovarian adenocarcinoma), SK—N—SH (neuroblastoma) and A549 (lung carcinoma). Several compounds were assayed in vitro using the Cell Titer Blue viability assay against an array of cancer cell lines of both human and murine origin plus one healthy human breast cell line (Table 1, FIGS. 1-16). A mouse 4T1 metastasis study was performed to determine the anti-metastatic potential of one compound, MBC0179 (FIG. 17).
Dimethyl sulfoxide (DMSO), Cremophor EL, methylene blue, 100× antibiotic/antimycotic solution, collagenase (Type IV), DNAse I and 6-thioguanine were available from Millipore-Sigma. […]
(In general: Resazurin is reduced to fluorescent resorufin, in cell work by metabolically active cells.)

For test [3], the system named is hTERT-HME1 healthy human breast epithelial cells. Briefly: Cell Titer Blue in vitro cell viability assay, hTERT-HME1. The note with it: 72 h, hTERT-HME1 (MEGM), 3 days at 37° C. As for the experimental part: as §1, with “6:” for “8:”, “hTERT-HME1 cells in MEGM Media.” for “MCF7 cells.”, “[…] healthy” for “MCF7, estrogen receptor positive,”, “epithelial” for “cancer”, “cells in growth factor-rich MEGM media” for “cells”
as §2

The subject of test [4] is OVCAR-3 human ovarian cancer cells. As to the kind of experiment: Cell Titer Blue in vitro cell viability assay, OVCAR-3. As to conditions: 72 h, OVCAR-3 (RPMI), 3 days at 37° C. As for the experimental part:
as §1, with “14:” for “8:”, “OVCAR-3” for “MCF7”, “OVCAR-3” for “MCF7, estrogen receptor positive,”, “ovarian” for “breast”
as §2

Test [5] has as its system 4T1 mouse triple-negative breast cancer cells. Briefly: Cell Titer Blue in vitro cell viability assay, 4T1. The note with it: 72 h, 4T1 (RPMI), 3 days at 37° C. As for the experimental part:
as §1, with “16:” for “8:”, “4T1” for “MCF7”, “4T1 mouse triple-negative” for “MCF7, estrogen receptor positive, human”
as §2

The record followed here is US20240124520A1, “N-ACYLATED HISTIDINE DIPEPTIDES AS ANTICANCER AGENTS” (THE BOARD OF TRUSTEES OF THE LELAND STANFORD JUNIOR …, priority 2019, published 2024).

Non-standard residues stand in square brackets, D forms with d. Residues, ends and D or L forms follow the SMILES beside them. *: point of attachment. Palmitoyl = CCCCCCCCCCCCCCCC(=O)*

For orientation: IC50 means the concentration needed to halve the response being measured. A higher IC50 goes with a need for much substance. Regarding `CCCCCCCCCCCCCCCC(=O)N[C@H](Cc1c[nH]cn1)C(=O)N[C@@H](C(=O)OCC)C(C)C` [Compound 5, N-[N-(1-oxohexadecyl)-D-histidyl]-D-valine ethyl ester] (Palmitoyl-[dH]-[dV]-OEt), the half-maximal inhibitory concentration (IC50) in test [1] is 355 µM; in test [2] (MDA-MB-231 (DMEM)), 14.7 µM; in test [2] (MDA-MB-231 (MEGM)), 8.88 µM; in test [3], 270 µM; in test [4], 9.22 µM; in test [5] it was 25.5 µM.
